Experimental data taken from patent US20240239790A1, “7-Morpholino-1,6-Naphthyridin-5-yl Derivatives and Pharmaceutical Compositions Thereof Useful as DNA-PK Inhibitor” (adMare Therapeutics Society, priority 2021, published 2024).
Read-outs that look alike come from different tables or passages of the source.

Legend:
[1] = Hepatocyte Stability Assay, mouse hepatocytes; format: in vitro ADME; details: for hepatocyte CLint at 1 uM: male, CD-1, cryopreserved hepatocytes, pH 7.3, mouse hepatocytes 0.7 million cells per mL, 1 uM compound; for Hepatocyte Stability Mouse % rem. 120 min: mouse hepatocytes
Method: Cryopreserved mouse hepatocytes were obtained from a pool of 10 or more male CD-1 mice. Cryopreserved human hepatocytes were obtained from a pool of 10 or more donors of mixed gender. Final hepatocyte density was 0.7 million viable cells per mL and test compound concentration was 1 uM with a maximum of 0.01% DMSO. Cryopreserved hepatocytes were thawed, washed, and resuspended in Krebs-Heinslet buffer (pH 7.3). The reaction was initiated by adding the test compound into cell suspension and incubated for 0, […], 1, 1.5, and 2 h, respectively, at 37° C./5% C02. The reaction was stopped by adding acetonitrile into the incubation mixture. Samples were then mixed, transferred completely to another 96-well plate, and centrifuged. Supernatants were used for HPLC-MS/MS analysis. […] Peak areas corresponding to the test compound were recorded.

[2] = biological target: T1, DNA-PK phosphorylation at Serine 2056 (Homo sapiens, UniProt P78527); test: Cellular Assay for Inhibition of DNA-PK Phosphorylation at Serine 2056 in FaDu cells (sandwich ELISA, neocarzinostatin); format: cell-based; details: pSer2056 DNA-PK, neocarzinostatin 1 μg/mL, Table 1
T1 construct: FaDu cells were purchased from ATCC; host or cells: FaDu
Summary of the method: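 FaDu cells pre-treated with compound (0.3% DMSO) for 1 h, then neocarzinostatin 1 μg/mL final added for 2 h to induce DSBs. Protein-normalised lysates read by sandwich ELISA for total and pSer2056 DNA-PK; % inhibition normalised between DMSO and NCS controls, IC50 from variable-slope log(inhibitor) fit.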

[3] = Microsomal Stability Assay, mouse liver microsomes; format: in vitro ADME; details: for microsomal CLint at 0.1 uM: male, CD-1, pH 7.4, mouse liver microsomes 0.1 mg/mL, 0.1 uM compound; for Microsomal Stability Mouse % rem. 60 min: mouse liver microsomes
Method: (§1) Samples were then mixed and centrifuged. Supernatants were used for HPLC-MS/MS analysis. […] Peak areas corresponding to the test compound were recorded.

[4] = Microsomal Stability Assay, human liver microsomes; format: in vitro ADME; details: for microsomal CLint at 0.1 uM: both sexes, pH 7.4, human liver microsomes 0.1 mg/mL, 0.1 uM compound; for Microsomal Stability Human % rem. 60 min: human liver microsomes
Method: as §1

[5] = Pharmacokinetic study in mice (IV and PO), plasma; format: in vivo, mouse; details: for AUC(0-t) / half-life / AUC(0-inf) / Cmax / Cmax at 5 min: female, C57BL/6; for AUC(0-t) / half-life / AUC(0-inf) / Cmax / AUC—% Extrap—obs / Cl_obs / Vz_obs / Cmax at 5 min / AUC_% Extrap_obs: mouse plasma; for Cmax: read-out: Cmax (5 min); for Rsq: Mouse Plasma, fit of NCA
Method: Pharmacokinetic analysis of compounds was conducted following bolus intravenous (IV) or bolus oral (PO) gavage in mice. Female mice (C57BL/6) in the 17-26 g range were weighed, and then administered an individually prescribed dose volume based on body weight of formulated compound via the intravenous (IV; tail vein) or oral gavage (PO) route (IV 5 mL/kg; PO 10 mL/kg). At selected timepoints post administration, blood was collected into vials with anticoagulant, processed for plasma by centrifugation, and then kept frozen ([…]) until analysis.
The in-vivo study plasma samples were analyzed using Ultra Performance Liquid Chromatography (UPLC) with tandem mass spectrometry (MS/MS) detection in multiple reaction monitoring (MRM) mode. A generic bioanalytical method involving plasma sample extraction and cleanup by protein precipitation with acetonitrile was used followed by UPLC-MS/MS analysis.
A brief example of a generic bioanalytical UPLC-MS/MS method used for analysis of compounds in the in-vivo study plasma samples is as follows. Plasma samples were spiked with internal standard prior to extraction and cleanup by protein precipitation with ice cold acetonitrile containing 0.1% (v/v) ammonium hydroxide at a ratio of 3:1 (solvent:plasma) and centrifuged at 18213 rcf for 15 minutes at 4° C. to pellet precipitates. Aliquots of supernatants were transferred to a 96-well plate and evaporated to dryness at 40° C. under a stream of nitrogen gas. Samples were reconstituted in 50:50 acetonitrile/10 mM ammonium acetate buffer pH 8, mixed thoroughly and analyzed using Ultra Performance Liquid Chromatography (UPLC) with tandem mass spectrometry (MS/MS) detection in multiple reaction monitoring (MRM) mode. Matrix-matched calibration standards and quality control (QC) samples were prepared in naïve C57Bl/6 mouse plasma. The UPLC column used was Waters Acquity UPLC BEH C18 1.7 um, 2.1 mm×50 mm (with guard column). The UPLC mobile phase consisted of: Mobile phase A: 10 mM ammonium acetate in Water pH 8, and Mobile phase B: Acetonitrile. Separation was accomplished with a linear gradient of 5% mobile phase B to 95% mobile phase B in 2 min, and a flow rate of 0.35 mL/min. The MS/MS data acquisition was accomplished using 3 MRM Transitions in ESI+ mode. Parent ion mass 508.37 m/z-to-Daughter ions (m/z) 117.05, 232.13 and 270.22. The quantitation of concentrations in test samples was achieved by matrix-matched calibration with normalization using an internal standard. Data acquisition and analysis were performed using Waters MassLynx software with TargetLynx application manager.
Estimation of PK parameters was performed using independent noncompartmental model method by PHOENIX WinNonlin software.

Structure (SMILES) | hepatocyte CLint at 1 uM [1] | Hepatocyte Stability Mouse % rem. 120 min [1] | IC50 [2] | microsomal CLint at 0.1 uM [3] | Microsomal Stability Mouse % rem. 60 min [3] | microsomal CLint at 0.1 uM [4] | Microsomal Stability Human % rem. 60 min [4] | other results
O=C(COc1cnc(N[C@H]2CC[C@@H](Oc3nc(N4CCOCC4)cc4ncccc34)CC2)nc1)N1CCOCC1 [Compound 61, 1-Morpholino-2-((2-(((1s,4s)-4-((7-morpholino-1,6-naphthyridin-5-yl)oxy)cyclohexyl)amino)pyrimidin-5-yl)oxy)ethan-1-one] | < 8.2 µL/min/1e6 cells | G (% remaining = 50-75%) | < 100 nM | < 116 µL/min/mg | H (% remaining = 75-100%) | > 116 µL/min/mg | F (% remaining = 25-50%) | Rsq ([5]; IV, 3 mg/kg): 0.97; Rsq ([5]; PO, 10 mg/kg): 0.93; F ([5]; Mouse, PO 10 mg/kg vs IV 3 mg/kg): 72%; AUC(0-t) ([5]; IV, 3 mg/kg): 5210 ng·h/mL; Cmax at 5 min ([5]; IV, 3 mg/kg): 4900 ng/mL; half-life ([5]; IV, 3 mg/kg): 2.2 h; AUC(0-inf) ([5]; IV, 3 mg/kg, read-out: AUCINF_obs): 5340 ng·h/mL; AUC(0-t) ([5]; PO, 10 mg/kg): 12600 ng·h/mL; Cmax at 5 min ([5]; PO, 10 mg/kg): 3510 ng/mL; half-life ([5]; PO, 10 mg/kg): 2.05 h; AUC(0-inf) ([5]; PO, 10 mg/kg, read-out: AUCINF_obs): 12600 ng·h/mL; AUC_% Extrap_obs ([5]; IV, 3 mg/kg): 2.45%; Cl_obs ([5]; IV, 3 mg/kg): 9.3625 mL/min/kg; Vz_obs ([5]; IV, 3 mg/kg): 1.7849 L/kg; AUC_% Extrap_obs ([5]; PO, 10 mg/kg): 0.05%; Cl_obs ([5]; PO, 10 mg/kg): 13.265 mL/min/kg; Vz_obs ([5]; PO, 10 mg/kg): 2.35641 L/kg
CN1CCN(C(=O)COc2cnc(N[C@H]3CC[C@@H](Oc4nc(N5CCOCC5)cc5ncccc45)CC3)nc2)CC1 [Compound 62, 1-(4-Methylpiperazin-1-yl)-2-((2-(((1s,4s)-4-((7-morpholino-1,6-naphthyridin-5-yl)oxy)cyclohexyl)amino)pyrimidin-5-yl)oxy)ethan-1-one] | < 8.2 µL/min/1e6 cells | H (% remaining = 75-100%) | < 100 nM | < 116 µL/min/mg | F (% remaining = 25-50%) | < 116 µL/min/mg | G (% remaining = 50-75%) | –
CC(=O)NCCOc1cnc(N[C@H]2CC[C@@H](Oc3nc(N4CCOCC4)cc4ncccc34)CC2)nc1 [Compound 66] | < 8.2 µL/min/1e6 cells | F (% remaining = 25-50%) | < 100 nM | < 116 µL/min/mg | G (% remaining = 50-75%) | > 116 µL/min/mg | F (% remaining = 25-50%) | –
O=C(COc1cnc(N[C@H]2CC[C@@H](Oc3nc(N4CCOCC4)cc4ncccc34)CC2)nc1)N1CCNCC1 [Compound 63, 2-((2-(((1s,4s)-4-((7-Morpholino-1,6-naphthyridin-5-yl)oxy)cyclohexyl)amino)pyrimidin-5-yl)oxy)-1-(piperazin-1-yl)ethan-1-one] | < 8.2 µL/min/1e6 cells | H (% remaining = 75-100%) | < 100 nM | > 116 µL/min/mg | F (% remaining = 25-50%) | < 116 µL/min/mg | H (% remaining = 75-100%) | –
CN(C)CCOc1cnc(N[C@H]2CC[C@@H](Oc3nc(N4CCOCC4)cc4ncccc34)CC2)nc1 [Compound 64, 5-(2-(Dimethylamino)ethoxy)-N-((1s,4s)-4-((7-morpholino-1,6-naphthyridin-5-yl)oxy)cyclohexyl)pyrimidin-2-amine] | < 8.2 µL/min/1e6 cells | G (% remaining = 50-75%) | 100 to 1000 nM | < 116 µL/min/mg | G (% remaining = 50-75%) | < 116 µL/min/mg | H (% remaining = 75-100%) | –

Further lines, with some results ahead:

hepatocyte CLint at 1 uM [1] | Hepatocyte Stability Mouse % rem. 120 min [1] | IC50 [2] | microsomal CLint at 0.1 uM [3] | Microsomal Stability Mouse % rem. 60 min [3] | microsomal CLint at 0.1 uM [4] | Microsomal Stability Human % rem. 60 min [4] | Structure (SMILES) | other results
< 8.2 µL/min/1e6 cells | H (% remaining = 75-100%) | < 100 nM | < 116 µL/min/mg | G (% remaining = 50-75%) | < 116 µL/min/mg | G (% remaining = 50-75%) | CN(C)C(=O)Cn1ccc2nc(N[C@H]3CC[C@@H](Oc4nc(N5CCOCC5)cc5ncccc45)CC3)ncc21 [Compound 86, N,N-Dimethyl-2-(2-(((1s,4s)-4-((7-morpholino-1,6-naphthyridin-5-yl)oxy)cyclohexyl)amino)-5H-pyrrolo[3,2-d]pyrimidin-5-yl)acetamide] | AUC(0-t) ([5]; IV, 3 mg/kg): 4100 ng·h/mL; half-life ([5]; IV, 3 mg/kg): 1.77 h; AUC(0-inf) ([5]; IV, 3 mg/kg, read-out: AUCINF—obs): 4160 ng·h/mL; Cmax ([5]; IV, 3 mg/kg): 6450 ng/mL; AUC(0-t) ([5]; PO, 10 mg/kg): 2620 ng·h/mL; half-life ([5]; PO, 10 mg/kg): 2.92 h; AUC(0-inf) ([5]; PO, 10 mg/kg, read-out: AUCINF—obs): 2630 ng·h/mL; Cmax ([5]; PO, 10 mg/kg): 589 ng/mL; AUC—% Extrap—obs ([5]; IV, 3 mg/kg): 1.44%; Cl_obs ([5]; IV, 3 mg/kg): 12.022 mL/min/kg; Vz_obs ([5]; IV, 3 mg/kg): 1.8426 L/kg; AUC—% Extrap—obs ([5]; PO, 10 mg/kg): 0.47%; Cl_obs ([5]; PO, 10 mg/kg): 63.328 mL/min/kg; Vz_obs ([5]; PO, 10 mg/kg): 16.019 L/kg; F ([5]; mouse, PO, 10 mg/kg): 19%
< 8.2 µL/min/1e6 cells | G (% remaining = 50-75%) | < 100 nM | < 116 µL/min/mg | F (% remaining = 25-50%) | > 116 µL/min/mg | E (% remaining = 0-25%) | CN(C)C(=O)COc1ccc(C(=O)N[C@H]2CC[C@@H](Oc3nc(N4CCOCC4)cc4ncccc34)CC2)cn1 [Compound 117, 6-(2-(dimethylamino)-2-oxoethoxy)-N-((1s,4s)-4-((7-morpholino-1,6-naphthyridin-5-yl)oxy)cyclohexyl)nicotinamide] | –
< 8.2 µL/min/1e6 cells | G (% remaining = 50-75%) | < 100 nM | < 116 µL/min/mg | G (% remaining = 50-75%) | < 116 µL/min/mg | F (% remaining = 25-50%) | CNC(=O)COc1cnc(N[C@H]2CC[C@@H](Oc3nc(N4CCOCC4)cc4ncccc34)CC2)nc1 [Compound 71, N-Methyl-2-((2-(((1s,4s)-4-((7-morpholino-1,6-naphthyridin-5-yl)oxy)cyclohexyl)amino)pyrimidin-5-yl)oxy)acetamide] | –
< 8.2 µL/min/1e6 cells | H (% remaining = 75-100%) | 100 to 1000 nM | < 116 µL/min/mg | G (% remaining = 50-75%) | < 116 µL/min/mg | G (% remaining = 50-75%) | CN(C)C(=O)COc1cnc(N[C@H]2CC[C@@H](Oc3nc(N4CCOCC4)cc4ncc(NS(C)(=O)=O)cc34)CC2)nc1 [Compound 182, N,N-dimethyl-2-((2-(((1s,4s)-4-((3-(methylsulfonamido)-7-morpholino-1,6-naphthyridin-5-yl)oxy)cyclohexyl)amino)pyrimidin-5-yl)oxy)acetamide] | –
